Publication PMC8563733, “The transcriptional corepressor CtBP2 serves as a metabolite sensor orchestrating hepatic glucose and lipid homeostasis” (Nature Communications, 2021)
Where two headings read alike, the source gives them in different places.

Assays:
[1] = target: T1, CtBP2 (C-terminal binding protein 2) (Homo sapiens, UniProt P56545); assay: microscale thermophoresis; supported by DSF (Kd […])
T1 construct: full-length CtBP2 with strep-tag and HA-tag tandemly fused to the C-terminus (baculovirus)

[2] = target: T1, CtBP2 (C-terminal binding protein 2); assay: as above; remark: listed apart in the source

| Kd [1] [µM] | Kd [2] [µM] | SMILES |
| --- | --- | --- |
| 18.8 ± 1.28 |  | CCCCCCCC/C=C\CCCCCCCC(=O)SCCNC(=O)CCNC(=O)[C@H](O)C(C)(C)COP(=O)(O)OP(=O)(O)OC[C@H]1O[C@@H](n2cnc3c(N)ncnc32)[C@H](O)[C@@H]1OP(=O)(O)O [oleoyl-CoA] |
|  | 19.5 ± 6.61 | NC(=O)C1=CN([C@@H]2O[C@H](COP(=O)(O)OP(=O)(O)OC[C@H]3O[C@@H](n4cnc5c(N)ncnc54)[C@H](O)[C@@H]3O)[C@@H](O)[C@H]2O)C=CC1 [NADH] |
